Patent publication US10173968B2, “Bishydrazone-based antifungal agents” (University of Kentucky Research Foundation, priority 2016, dated 2019)
In brackets after ≈: the same amount, converted by molar mass. Several values for one entry are separate records, joined by “and”; a condition that tells them apart may be missing. Equal values may be shown once. Read-outs that look alike come from different tables or passages of the source.

What was measured:
[1] = tested on: A. baumannii ATCC 19606; test: Antibacterial MIC, double-dilution method; assay type: cell-based; conditions: Acinetobacter baumannii, ATCC19606
Procedure: (§1) MIC values were determined against a variety of Gram-positive (strains A-D) and Gram-negative (E-J) bacterial and mycobacterial (K) strains using the double-dilution method, as previously published. Preliminary screening was performed using 500 μM of each compound.

[2] = tested on: B. subtilis 168; test: Antibacterial MIC, double-dilution method; assay type: cell-based; conditions: Bacillus subtilis, strain A, Gram-positive
Procedure: as §1

[3] = tested on: E. cloacae ATCC 13047; test: Antibacterial MIC, double-dilution method; assay type: cell-based; conditions: Enterobacter cloacae, ATCC13047
Procedure: as §1

[4] = tested on: E. coli MC1061; test: Antibacterial MIC, double-dilution method; assay type: cell-based; conditions: Escherichia coli, strain G, Gram-negative, read-out: MIC
Procedure: as §1

[5] = tested on: K. pneumoniae ATCC 27736; test: Antibacterial MIC, double-dilution method; assay type: cell-based; conditions: Klebsiella pneumoniae, ATCC27736
Procedure: as §1

[6] = tested on: L. monocytogenes ATCC 19115; test: Antibacterial MIC, double-dilution method; assay type: cell-based; conditions: Listeria monocytogenes, ATCC19115, strain B, Gram-positive, read-out: MIC
Procedure: as §1

[7] = tested on: M. smegmatis MC2-155; test: Antibacterial MIC, double-dilution method; assay type: cell-based; conditions: Mycolicibacterium smegmatis, MC2155, strain K, mycobacterial
Procedure: as §1

[8] = tested on: MRSA; test: Antibacterial MIC, double-dilution method; assay type: cell-based; conditions: Staphylococcus aureus, strain C, Gram-positive, read-out: MIC
Procedure: as §1

[9] = tested on: P. aeruginosa ATCC 27853; test: Antibacterial MIC, double-dilution method; assay type: cell-based; conditions: Pseudomonas aeruginosa, ATCC27853
Procedure: as §1

[10] = tested on: S. enterica ATCC 14028; test: Antibacterial MIC, double-dilution method; assay type: cell-based; conditions: Salmonella enterica, ATCC14028, strain J, Gram-negative, read-out: MIC
Procedure: as §1

[11] = tested on: VRE; test: Antibacterial MIC, double-dilution method; assay type: cell-based; conditions: Enterococcus, strain D, Gram-positive, read-out: MIC
Procedure: as §1

[12] = tested on: all bacterial strains tested; test: Antibacterial MIC, summary over the panel; assay type: cell-based; conditions: read-out: MIC, span over all bacterial strains tested
Procedure: as §1

[13] = tested on: C. albicans ATCC 1003; test: Antifungal MIC, CLSI M27-A3 microbroth dilution; assay type: cell-based, Candida albicans; conditions: Candida albicans, ATCC1003, read-out: MIC
Procedure: (§2) In vitro MIC testing was performed according to the CLSI M27-A3 standard microbroth dilution methodology for the susceptibility testing of yeasts with minor modifications.

[14] = tested on: C. albicans ATCC 10231; test: Antifungal MIC, CLSI M27-A3 microbroth dilution; assay type: cell-based, Candida albicans; conditions: Candida albicans, ATCC10231, C. albicans ATCC 10231, resistant to FLC, ITC, and VOR, read-out: MIC
Procedure: as §2

[15] = tested on: C. albicans ATCC 1237; test: Antifungal MIC, CLSI M27-A3 microbroth dilution; assay type: cell-based, Candida albicans; conditions: Candida albicans, ATCC1237, C. albicans ATCC 1237, resistant to FLC, ITC, and VOR, read-out: MIC
Procedure: as §2

[16] = tested on: C. albicans ATCC 2310; test: Antifungal MIC, CLSI M27-A3 microbroth dilution; assay type: cell-based, Candida albicans; conditions: Candida albicans, ATCC2310, C. albicans ATCC 2310, susceptible to FLC, ITC, and VOR, read-out: MIC
Procedure: as §2

[17] = tested on: C. albicans ATCC 2876; test: Antifungal MIC, CLSI M27-A3 microbroth dilution; assay type: cell-based, Candida albicans; conditions: Candida albicans, ATCC2876, C. albicans ATCC 2876, susceptible to FLC, ITC, and VOR, read-out: MIC
Procedure: as §2

[18] = tested on: C. albicans ATCC 64124; test: Antifungal MIC, CLSI M27-A3 microbroth dilution; assay type: cell-based, Candida albicans; conditions: Candida albicans, ATCC64124, C. albicans ATCC 64124, resistant to FLC, ITC, and VOR, read-out: MIC
Procedure: as §2

[19] = tested on: C. albicans ATCC 90819; test: Antifungal MIC, CLSI M27-A3 microbroth dilution; assay type: cell-based, Candida albicans; conditions: Candida albicans, ATCC90819, C. albicans ATCC 90819, resistant to FLC, ITC, and VOR, read-out: MIC
Procedure: as §2

[20] = tested on: C. albicans strains (panel of seven); test: Antifungal MIC, summary over the panel; assay type: cell-based, Candida albicans; conditions: for MIC: Candida albicans, all, most or majority of the fungal strains, read-out: MIC, span over C. albicans strains
Procedure: In vitro MIC testing was performed according to the CLSI M27-A3 standard microbroth dilution methodology for the susceptibility testing of yeasts with minor modifications. […] MIC values were read visually for all tested compounds, and the endpoint was determined as the minimum concentration of compound that yielded complete inhibition relative to growth control.

[21] = strain E, Gram-negative, converted from μM, read-out: MIC
[22] = strain E, Gram-negative, range 0.5 to 500 μM, read-out: MIC
[23] = strain F, Gram-negative, converted from μM, read-out: MIC
[24] = strain F, Gram-negative, range 0.5 to 500 μM, read-out: MIC
[25] = strain H, Gram-negative, converted from μM, read-out: MIC
[26] = strain H, Gram-negative, range 0.5 to 500 μM, read-out: MIC
[27] = converted from μM, read-out: MIC
[28] = range 0.5 to 500 μM, read-out: MIC
[29] = strain I, Gram-negative, converted from μM, read-out: MIC
[30] = strain I, Gram-negative, range 0.5 to 500 μM, read-out: MIC
[31] = C. albicans ATCC 1003, converted from μg/mL

Structure (SMILES) | MIC [1, 22] [µM] | MIC ([2]; converted from μM) [µg/mL] | MIC ([2]; range 0.5 to 500 μM) [µM] | MIC [3, 23] [µg/mL] | MIC [3, 24] [µM] | MIC ([4]; converted from μM) [µg/mL] | MIC ([4]; range 0.5 to 500 μM) [µM] | MIC [5, 26] [µM] | MIC ([6]; converted from μM) [µg/mL] | MIC ([6]; range 0.5 to 500 μM) [µM] | MIC [7, 27] [µg/mL] | MIC [7, 28] [µM] | MIC ([8]; converted from μM) [µg/mL] | MIC ([8]; range 0.5 to 500 μM) [µM] | MIC [9, 29] [µg/mL] | MIC [9, 30] [µM] | MIC ([10]; converted from μM) [µg/mL] | MIC ([10]; range 0.5 to 500 μM) [µM] | MIC ([11]; converted from μM) [µg/mL] | MIC ([11]; range 0.5 to 500 μM) [µM] | also measured
CC1COc2c(N3CCN(C)CC3)c(F)cc3c(=O)c(C(=O)O)cn1c23 (centres unmarked) [OFX, ofloxacin, reference compound] | ≤ 0.5 | ≤ 0.2 | ≤ 0.5 | ≤ 0.2 | ≤ 0.5 | 1.4 to 2.8 | 3.9 to 7.8 | 15.6 to 31.3 | 0.4 | 1 | 5.6 | 15.6 | 0.4 | 1 | 1.4 | 3.9 | 5.6 to 11.3 | 15.6 to 31.3 | 2.8 | 7.8 | MIC [1, 21]: ≤ 0.2 µg/mL; MIC [5, 25]: 5.6 to 11.3 µg/mL; MIC [12]: 0.5 to 31.3 µM (≈ 0.181 to 11.3 µg/mL)
Cl.N=C(N)N/N=C/c1ccc(-c2ccc(/C=N/Nc3ccccc3Br)cc2)cc1 [Compound 7Ab, (E)-2-((4′-((E and Z)-(2-(2-Bromophenyl)hydrazono)methyl)-[1,1′-biphenyl]-4-yl)methylene)hydrazine-1-carboximidamide monohydrochloride] | > 500 | > 235 | > 500 | > 235 | > 500 | > 235 | > 500 | > 500 | 0.9 | 2 | 1.8 | 3.9 | 0.9 | 2 | > 235 | > 500 | > 235 | > 500 | 0.9 | 2 | MIC [1, 21]: > 235 µg/mL; MIC [5, 25]: > 235 µg/mL; MIC [13, 31]: 4.1 µM; MIC [13]: 2 µg/mL; MIC ([14]; converted from μg/mL): 4.1 µM; MIC [14]: 2 µg/mL; MIC ([15]; converted from μg/mL): 8.3 µM; MIC [15]: 3.9 µg/mL; MIC ([16]; converted from μg/mL): 8.3 µM; MIC [16]: 3.9 µg/mL; MIC ([17]; converted from μg/mL): 8.3 µM; MIC [17]: 3.9 µg/mL; MIC ([18]; converted from μg/mL): 8.3 µM; MIC [18]: 3.9 µg/mL; MIC ([19]; converted from μg/mL): 8.3 µM; MIC [19]: 3.9 µg/mL; antifungal activity in words ([20]; against all fungal strains tested): excellent antifungal activities; melting point: > 380 °C
CC1(C)S[C@@H]2[C@H](NC(=O)[C@H](N)c3ccccc3)C(=O)N2[C@H]1C(=O)O [AMP, ampicillin, reference compound] | > 250 | > 92.8 | > 250 | – | > 250 | > 92.8 | > 250 | > 250 | 92.8 | 250 | > 92.8 | > 250 | 92.8 | 250 | – | > 250 | 92.8 | 250 | 92.8 | 250 | MIC [1]: > 92.8 µg/mL; MIC [3]: > 92.8 µg/mL; MIC [5]: > 92.8 µg/mL; MIC [9]: > 92.8 µg/mL; MIC [12]: ≥ 250 µM
Cl.N#Cc1ccc(N/N=C/c2ccc(-c3ccc(/C=N/NC(=N)N)cc3)cc2)cc1 [Compound 7Ae, (E)-2-((4′-((E and Z)-(2-(4-Cyanophenyl)hydrazono)methyl)-[1,1′-biphenyl]-4-yl)methylene)hydrazine-1-carboximidamide monohydrochloride] | – | 13.1 | 31.3 | 209 | 500 | 26.1 to 52.2 | 62.5 to 125 | – | 3.3 | 7.8 | 6.5 to 13.1 | – | 6.5 | 15.6 | 13.1 to 26.1 | 31.3 to 62.5 | 6.5 | 15.6 | 0.8 to 1.6 | 2 to 3.9 | MIC [1]: 15.6 µM to 31.3 µM and 6.5 µg/mL to 13.1 µg/mL; MIC [5]: 15.6 µM to 31.3 µM and 6.5 µg/mL to 13.1 µg/mL; MIC ([7]; range 0.5 to 500 μM): 15.6 to 31.3 µM; MIC [13, 31]: 18.7 µM; MIC [13]: 7.8 µg/mL; MIC ([14]; converted from μg/mL): 37.3 µM; MIC [14]: 15.6 µg/mL; MIC ([15]; converted from μg/mL): 37.3 µM; MIC [15]: 15.6 µg/mL; MIC ([16]; converted from μg/mL): 37.3 µM; MIC [16]: 15.6 µg/mL; MIC ([17]; converted from μg/mL): 37.3 µM; MIC [17]: 15.6 µg/mL; MIC ([18]; converted from μg/mL): 74.9 µM; MIC [18]: 31.3 µg/mL; MIC ([19]; converted from μg/mL): 37.3 µM; MIC [19]: 15.6 µg/mL; MIC [20]: 7.8 to 15.6 µg/mL; melting point: 308 to 310 °C
Cl.N=C(N)N/N=C/c1ccc(-c2ccc(/C=N/Nc3ccc(Cl)cc3Cl)cc2)cc1 [Compound 7Ag, (E)-2-((4′-((E)-(2-(2,4-dichlorophenyl)hydrazono)methyl)-[1,1′-biphenyl]-4-yl)methylene)hydrazine-1-carboximidamide hydrochloride] | > 500 | > 231 | > 500 | > 231 | > 500 | > 231 | > 500 | > 500 | 3.6 | 7.8 | 1.8 | 3.9 | 3.6 | 7.8 | > 231 | > 500 | > 231 | > 500 | 3.6 | 7.8 | MIC [1, 21]: > 231 µg/mL; MIC [5, 25]: > 231 µg/mL; MIC [13, 31]: 16.8 µM; MIC [13]: 7.8 µg/mL; MIC ([14]; converted from μg/mL): 16.8 µM; MIC [14]: 7.8 µg/mL; MIC ([15]; converted from μg/mL): 33.8 µM; MIC [15]: 15.6 µg/mL; MIC ([16]; converted from μg/mL): 16.8 µM; MIC [16]: 7.8 µg/mL; MIC ([17]; converted from μg/mL): 33.8 µM; MIC [17]: 15.6 µg/mL; MIC ([18]; converted from μg/mL): 67.8 µM; MIC [18]: 31.3 µg/mL; MIC ([19]; converted from μg/mL): 67.8 µM; MIC [19]: 31.3 µg/mL; MIC [20]: 7.8 to 15.6 µg/mL; melting point: 356 to 358 °C
